Patent US9890126B2 (priority 2012, dated 2018)
pKd: −log10 of the molar value. Where two headings read alike, the source gives them in different places. Marks after values point to notes of the source that are not given here.

Columns and labels:
IspF = IspF (Burkholderia pseudomallei, UniProt Q3JRA0); assay: biochemical; type: binding; conditions: for Kd: pH 7.4
Burkholderia [1] = system: Burkholderia
B. pseudomallei = type: cell-based, Burkholderia pseudomallei; conditions: for concentration effects on growth of B. pseudomallei over time: 1 mM to 31.25 μM, FIGS. 3-10, strains 1026b and 340
Plasmodium falciparum = assay: Antimalarial initial tests, three strains of drug resistant malaria; conditions: all three strains of drug resistant malaria
Burkholderia [2] = assay: microbe, parasite or virus in culture; conditions: read-out: inhibition against Burkholderia
[3] = relative to DMSO control, 0.00 = growth with inhibitor equal to or greater than DMSO control

Chain of IspF (Q3JRA0 whole entry, looked up): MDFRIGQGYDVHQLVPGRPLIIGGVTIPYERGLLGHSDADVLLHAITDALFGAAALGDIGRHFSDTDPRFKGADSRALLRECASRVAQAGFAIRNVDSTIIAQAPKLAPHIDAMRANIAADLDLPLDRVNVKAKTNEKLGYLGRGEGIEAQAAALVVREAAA

| SMILES | % Growth Inhibition Endpoint (24 h) (Burkholderia [1]; [3]) | further results |
| --- | --- | --- |
| NC(=O)c1c[nH]nc1NC(=O)c1c[nH]c2ncccc12 [HGN-0002] | – | Kd (IspF): not soluble |
| Nc1ccn([C@@H]2O[C@H](CNC(=O)c3ccncc3)[C@@H](O)[C@H]2O)c(=O)n1 [HGN-0005] | – | % Growth Inhibition Growth Curve (Burkholderia [1]; [3]): 0.00^b %; pKd (IspF): 3.75 |
| O=C([O-])c1cnc(Nc2ccc(-c3ccncc3)cc2)nc1[O-].[Na+].[Na+] [HGN-0013] | – | % Growth Inhibition Growth Curve (Burkholderia [1]; [3]): 6.26 ± 1.00%; Kd (IspF): non-specific |
| CC(C)n1cncc1-c1ccc(O)cc1 [HGN-0018] | – | Kd (IspF): no binding |
| Oc1ccc(-c2cncn2Cc2ccco2)cc1 [HGN-0019] | – | pKd (IspF): 3.42 |
| Oc1ccc(-c2cncn2CCc2c[nH]c3ccccc23)cc1 [HGN-0020] | – | % Growth Inhibition Growth Curve (Burkholderia [1]; [3]): 1.26 ± 2.33%; pKd (IspF): 3.69 |
| O=C([O-])c1cnc(NCCc2ccc(Cl)cc2)nc1[O-].[Na+].[Na+] [HGN-0028] | – | % Growth Inhibition Growth Curve (Burkholderia [1]; [3]): 68.20 ± 2.12%; concentration effects on growth of B. pseudomallei over time (B. pseudomallei): dose dependent; growth of B. pseudomallei over time (B. pseudomallei; FIG. 2): inhibited the growth; B. pseudomallei growth inhibition at lower concentrations (B. pseudomallei; lower concentrations): did not inhibit; pKd (IspF): 3.52 |
| Oc1ccc(-n2ccnc2)cc1 [HGN-0029] | – | % Growth Inhibition Growth Curve (Burkholderia [1]; [3]): 23.58 ± 0.54%; concentration effects on growth of B. pseudomallei over time (B. pseudomallei): did not inhibit the growth |
| O=C(O)c1cnc(Nc2ccc(-c3ccccc3)cc2)[nH]c1=O [HGN-0035, 2-((1,1′-biphenyl)-4-ylamino)-6-oxo-1,6-dihydropyrimidine-5-carboxylic acid] | 91.14 ± 1.18% | Kd (IspF): not soluble |
| CCOC(=O)c1cnc(Nc2ccc(N3CCOCC3)cc2)[nH]c1=O [HGN-0037] | – | % Growth Inhibition Endpoint (24 h) (Burkholderia [1]; cells printing symbol L): L^c; Kd (IspF): not soluble |
| CCOC(=O)c1cnc(NCCc2ccc(Cl)cc2)[nH]c1=O [HGN-0038, Ethyl 2-((4-chlorophenethyl)amino)-6-oxo-1,6-dihydropyrimidine-5-carboxylate] | 0.00^b % | Kd (IspF): not soluble |
| CCOC(=O)c1cnc(Nc2cccc(-c3ccccc3)c2)[nH]c1=O [HGN-0039] | 0.00^b % | Kd (IspF): non specific |
| CCOC(=O)c1cnc(Nc2ccc3cn[nH]c3c2)[nH]c1=O [HGN-0040, Ethyl 2-((1H-indazol-6-yl)amino)-6-oxo-1,6-dihydropyrimidine-5-carboxylate] | 16.39 ± 6.29% | Kd (IspF): no binding |
| CCOC(=O)c1cnc(Nc2ccc(CC(=O)O)cc2)[nH]c1=O [HGN-0041, 2-(4-((5-(ethoxycaronyl)-6-oxo-1,6-dihydropyrimidin-2-yl)amino)phenyl)acetic acid] | 0.00^b % | Kd (IspF): not soluble |
| CCOC(=O)c1cnc(Nc2ccc3[nH]ncc3c2)[nH]c1=O [HGN-0042, Ethyl 2-((1H-indazol-5-yl)amino)-6-oxo-1,6-dihydropyrimidine-5-carboxylate] | 20.70 ± 0.71% | Kd (IspF): not soluble |
| O=C([O-])c1cnc(Nc2ccc3cn[nH]c3c2)nc1[O-].[Na+].[Na+] [HGN-0045, Sodium 2-((1H-indazol-6-yl)amino)-4-oxoidopyrimidine-5-carboxylate] | 0.00^b % | Kd (IspF): non specific |
| O=C([O-])c1cnc(Nc2ccc3[nH]ncc3c2)nc1[O-].[Na+].[Na+] [HGN-0046, Sodium 2-((1H-indazol-5-yl)amino)-4-oxoidopyrimidine-5-carboxylate] | 15.12 ± 4.25% | Kd (IspF): non specific |
| Oc1ccc(CCn2cncc2-c2ccc(O)cc2)cc1 [HGN-0048] | – | pKd (IspF): 3.31 |
| O=C([O-])c1cnc(NCc2ccco2)nc1[O-].[Na+].[Na+] [HGN-0049] | 12.25 ± 0.40% | antimalarial potency in initial tests (Plasmodium falciparum): submicromolar |

| SMILES | % Growth Inhibition Endpoint (24 h) (Burkholderia [1]; [3]) | further results |
| --- | --- | --- |
| Oc1ccc(-c2cncn2CCc2ccc(Cl)cc2)cc1 [HGN-0051] | 0.00^b % | antimalarial potency in initial tests (Plasmodium falciparum): potent |
| Oc1ccc(-c2cncn2CCc2ccccc2)cc1 [HGN-0052] | – | Kd (IspF): no binding |
| Oc1ccc(-n2ccnc2)cc1 [HGN-0056] | – | Kd (IspF): no binding |
| OC(Cn1cnc(-c2ccccc2)c1-c1ccccc1)c1ccccc1 (stereo not shown) [HGN-0060] | – | Kd (IspF): not soluble |
| Cn1ccnc1C(O)Cc1ccccc1 (stereo not shown) [HGN-0061] | – | Kd (IspF): no binding |
| CC(c1ccccc1)C(O)c1nccn1-c1ccccc1 (stereo not shown) [HGN-0062] | – | Kd (IspF): no binding |
| Nc1ccn([C@@H]2O[C@H](CNC(=O)Cc3cn4ccsc4n3)[C@@H](O)[C@H]2O)c(=O)n1 [HGN-0102] | 0.00^b % | – |
| Oc1ccc(-c2cncn2Cc2ccccc2F)cc1 [HGN-0106] | 33.79 ± 16.09% | – |
| Oc1ccc(-c2cncn2CCc2ccccc2F)cc1 [HGN-0107] | 2.75 ± 2.62% | – |
| Oc1ccc(-c2cncn2CCc2cccc(Cl)c2)cc1 [HGN-0108] | – | % Growth Inhibition Endpoint (24 h) (Burkholderia [1]; cells printing symbol L): L^c |
| Oc1ccc(-c2cncn2Cc2cccc(F)c2)cc1 [HGN-0109] | 24.77 ± 10.79% | – |
| CCOC(=O)c1cnc(NCCc2ccc(F)cc2)[nH]c1=O [HGN-0111] | 31.31 ± 39.32% | – |
| O=C([O-])c1cnc(NCCc2ccc(F)cc2)nc1[O-].[Na+].[Na+] [HGN-0112] | 19.82 ± 16.53% | – |
| CCOC(=O)c1cnc(NCc2ccc(F)cc2)[nH]c1=O [HGN-0113] | 0.00^b % | – |
| O=C([O-])c1cnc(NCc2ccc(F)cc2)nc1[O-].[Na+].[Na+] [HGN-0114] | 5.94 ± 5.46% | – |
| CCOC(=O)c1cnc(NCCc2cccc(F)c2)[nH]c1=O [HGN-0115] | 0.00^b % | – |
| O=C([O-])c1cnc(NCCc2cccc(F)c2)nc1[O-].[Na+].[Na+] [HGN-0116] | 20.46 ± 3.47% | – |
| CCOC(=O)c1cnc(NCCc2ccc(Cl)cc2Cl)[nH]c1=O [HGN-0117] | 0.00^b % | – |
| O=C(O)c1cnc(NCCc2ccc(Cl)cc2Cl)nc1O [HGN-0118] | – | inhibition at 1000 µM (Burkholderia [2]): 94.5% |

| SMILES | % Growth Inhibition Endpoint (24 h) (Burkholderia [1]; [3]) | further results |
| --- | --- | --- |
| CCOC(=O)c1cnc(NCCc2ccccc2Cl)[nH]c1=O [HGN-0119] | 0.00^b % | – |
| O=C([O-])c1cnc(NCCc2ccccc2Cl)nc1[O-].[Na+].[Na+] [HGN-0120] | 80.30 ± 0.40% | – |
| CCOC(=O)c1cnc(NCc2ccccc2Cl)[nH]c1=O [HGN-0121] | 0.00^b % | – |
| O=C([O-])c1cnc(NCc2ccccc2Cl)nc1[O-].[Na+].[Na+] [HGN-0122] | 23.02 ± 8.79% | – |
| CCOC(=O)c1cnc(NCc2cccc(Cl)c2)[nH]c1=O [HGN-0123] | 0.00^b % | – |
| O=C([O-])c1cnc(NCc2cccc(Cl)c2)nc1[O-].[Na+].[Na+] [HGN-0124] | 30.67 ± 2.67% | – |
| CCOC(=O)c1cnc(NCc2ccc(Cl)cc2)[nH]c1=O [HGN-0125] | 23.89 ± 36.14% | – |
| O=C([O-])c1cnc(NCc2ccc(Cl)cc2)nc1[O-].[Na+].[Na+] [HGN-0126] | 34.34 ± 3.24% | – |
| CCOC(=O)c1cnc(NCc2cc(Cl)ccc2Cl)[nH]c1=O [HGN-0127] | 3.47 ± 2.20% | – |
| O=C([O-])c1cnc(NCc2cc(Cl)ccc2Cl)nc1[O-].[Na+].[Na+] [HGN-0128] | 37.46 ± 0.21% | – |
| CCOC(=O)c1cnc(NCc2ccc(Cl)c(Cl)c2)[nH]c1=O [HGN-0129] | 64.42 ± 2.77% | – |
| O=C([O-])c1cnc(NCc2ccc(Cl)c(Cl)c2)nc1[O-].[Na+].[Na+] [HGN-0130] | 45.59 ± 2.35% | – |
| CCOC(=O)c1cnc(NCCc2ccc(Cl)c(Cl)c2)[nH]c1=O [HGN-0131] | 0.00^b % | – |
| O=C([O-])c1cnc(NCCc2ccc(Cl)c(Cl)c2)nc1[O-].[Na+].[Na+] [HGN-0132] | 72.24 ± 11.83% | – |
| CCOC(=O)c1cnc(NCc2ccccc2F)[nH]c1=O [HGN-0133] | 0.00^b % | – |
| O=C([O-])c1cnc(NCc2ccccc2F)nc1[O-].[Na+].[Na+] [HGN-0134] | 26.05 ± 6.37% | – |
| CCOC(=O)c1cnc(NCCc2c(Cl)cccc2Cl)[nH]c1=O [HGN-0135] | 0.00^b % | – |
| O=C([O-])c1cnc(NCCc2c(Cl)cccc2Cl)nc1[O-].[Na+].[Na+] [HGN-0136] | 16.71 ± 5.04% | – |
| COc1cc(-c2cncn2CCc2c[nH]c3ccccc23)ccc1O [HGN-0137] | 0.00^b % | – |
